Earlier results, collected in paper PMC8480965 (The Journal of General Physiology, 2021).

Key:
Kv2.1 [1] = conditions: independent binding to each voltage sensor; ref Lee et al., 2003
Kv2.1 [2] = conditions: ref Tilley et al., 2019
Kv2.1 [3] = conditions: sphingomyelin converted to ceramide-1-phosphate; ref Milescu et al., 2009

Hanatoxin
inhibition of total gating charge movement per voltage sensor bound (Kv2.1 [1]): ~25%

guangxitoxin-1E (EGECGGFWWKCGSGKPACCPKYVCSPKWGLCNFPMP; UniProt P84835 1-36, looked up) [GxTX]
V1/2 of gating charge–voltage (QV) relation (Kv2.1 [2]; Kv2.1 in saturating GxTX): 47 ± 1 mV
z of gating charge–voltage (QV) relation (Kv2.1 [2]; Kv2.1 in saturating GxTX): 1.6 ± 0.1 e0
stabilization of voltage sensor in resting conformation with GxTX bound (Kv2.1 [2]; estimated previously): 5,400 fold
deactivation rate of voltage sensors bound by GxTX (Kv2.1 [2]): faster deactivation rate
mode of action on Kv2.1 (Kv2.1 [2]): partial inverse agonist of Kv2.1
enhancement of GxTX affinity for Kv2.1 by sphingomyelinase D (Kv2.1 [3]): fourfold
